This series relates to human liver microsomal fraction. As to the kind of experiment: Metabolic stability in human liver microsomes. It counts as in vitro ADME. As to conditions: after 1 h incubation, 1 μM. How it is done:
C57BL/6 mice that had been denied access to food overnight received the indicated oral dose of DS20060511, and blood samples were collected from the tail vein at the indicated timepoints. Plasma samples for quantitation of DS20060511 were prepared by centrifugation. Another group of mice received oral administration DS20060511 (30 mg kg^−1) and euthanized 75 min later. The soleus and gastrocnemius muscles, heart, and inguinal WAT were removed and homogenized in water (5 vol.) for quantitation of the drug concentrations. Plasma samples and tissue homogenates were analyzed by LC-MS/MS (Nexera MP System, SHIMADZU, Kyoto, Japan; API4000 System, SCIEX, Framingham, MA). The tissue concentrations of the compound were calculated by assuming the volume of 1 g of tissue is 1 mL. Evaluation of the metabolic stability of the compound to mouse and human cytochrome P450 (CYP) was conducted as follows. […] The results were expressed as the amount of compound remaining (expressed as a percentage), based on the ratio of the relative area to that in the control (without reaction).
Background: Liver microsomes are vesicles of endoplasmic reticulum, rich in cytochrome P450 enzymes.

We go through one compound from paper PMC8379256, “A xanthene derivative, DS20060511, attenuates glucose intolerance by inducing skeletal muscle-specific GLUT4 translocation in mice” (Communications Biology, 2021).

`COc1ccc2c(C)c(C(=O)O)ccc2c1C1C2=C(CC(C)(C)CC2=O)OC2=C1C(=O)CC(C)(C)C2` [DS20060511] displayed a compound remaining of 79%.
